# Activity calls are given as the source filed them.
# Legend:
# [1] = molecular target: T1, Replicative DNA helicase DnaB (Mycobacterium tuberculosis, UniProt P9WMR3); assay: DnaB intein splicing inhibitors, dose response, biochemical, cell-free fluorescence (AID 449749); assay type: functional
# T1 sequence (P9WMR3 whole entry): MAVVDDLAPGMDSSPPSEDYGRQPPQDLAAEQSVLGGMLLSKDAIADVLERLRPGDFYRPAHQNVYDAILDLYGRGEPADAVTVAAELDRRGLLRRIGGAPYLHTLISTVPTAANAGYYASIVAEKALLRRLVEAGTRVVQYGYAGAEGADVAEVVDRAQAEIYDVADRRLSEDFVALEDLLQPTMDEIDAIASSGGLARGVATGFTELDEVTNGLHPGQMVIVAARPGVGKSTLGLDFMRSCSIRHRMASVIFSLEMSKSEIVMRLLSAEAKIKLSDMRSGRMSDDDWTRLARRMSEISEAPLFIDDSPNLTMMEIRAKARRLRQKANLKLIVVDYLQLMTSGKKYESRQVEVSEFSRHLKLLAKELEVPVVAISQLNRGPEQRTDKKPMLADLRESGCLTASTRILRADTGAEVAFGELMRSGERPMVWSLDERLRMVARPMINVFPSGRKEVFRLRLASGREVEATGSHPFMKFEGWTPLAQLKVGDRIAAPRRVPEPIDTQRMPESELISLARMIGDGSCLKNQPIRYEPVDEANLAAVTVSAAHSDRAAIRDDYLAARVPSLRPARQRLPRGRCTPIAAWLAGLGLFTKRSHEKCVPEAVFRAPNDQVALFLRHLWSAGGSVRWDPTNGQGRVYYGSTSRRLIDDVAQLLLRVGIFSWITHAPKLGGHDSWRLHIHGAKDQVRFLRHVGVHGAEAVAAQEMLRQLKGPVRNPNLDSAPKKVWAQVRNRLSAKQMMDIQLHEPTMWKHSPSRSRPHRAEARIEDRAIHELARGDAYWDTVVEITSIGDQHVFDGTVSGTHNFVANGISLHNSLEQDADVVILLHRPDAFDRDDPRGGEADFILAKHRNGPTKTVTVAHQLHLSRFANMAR
# [2] = inhibitors of firefly luciferase expression or activity, dose response, H4 neuroglioma cells, luminescence (AID 1990); assay type: functional, cell-based
# [3] = inhibitors of SNCA 5'UTR-driven reporter translation, confirmation, H4 neuroglioma cells, luminescence (AID 1988); assay type: functional, cell-based
# [4] = Luminescence Cell-Based Dose Response HTS to Identify Inhibitors of 5'UTR Stem-Loop Driven Prion Protein mRNA Translation in H4 Neuroglioblastoma Cells. [Related pubchem assays: 1827 (Project Summary), 1813 (Primary HTS)]; assay type: functional
# SUMO-activating enzyme [5] = molecular target: T2, SUMO-activating enzyme (Homo sapiens, UniProt Q9UBT2); assay: SUMOylation inhibitor hit validation, confirmation, SUMOylation inhibitor project, biochemical, AlphaScreen (AID 2018); assay type: functional
# T2 sequence (Q9UBE0 whole entry): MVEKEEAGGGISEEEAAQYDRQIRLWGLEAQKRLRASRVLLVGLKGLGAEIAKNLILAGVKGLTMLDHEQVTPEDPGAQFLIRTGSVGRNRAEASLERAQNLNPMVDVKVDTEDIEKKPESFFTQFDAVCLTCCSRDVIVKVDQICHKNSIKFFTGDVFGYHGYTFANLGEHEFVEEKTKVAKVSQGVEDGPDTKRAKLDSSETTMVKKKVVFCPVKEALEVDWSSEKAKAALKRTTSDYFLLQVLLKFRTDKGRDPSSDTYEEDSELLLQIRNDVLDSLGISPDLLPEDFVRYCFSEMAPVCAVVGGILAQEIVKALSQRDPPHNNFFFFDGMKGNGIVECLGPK
# T2 sequence (Q9UBT2 whole entry): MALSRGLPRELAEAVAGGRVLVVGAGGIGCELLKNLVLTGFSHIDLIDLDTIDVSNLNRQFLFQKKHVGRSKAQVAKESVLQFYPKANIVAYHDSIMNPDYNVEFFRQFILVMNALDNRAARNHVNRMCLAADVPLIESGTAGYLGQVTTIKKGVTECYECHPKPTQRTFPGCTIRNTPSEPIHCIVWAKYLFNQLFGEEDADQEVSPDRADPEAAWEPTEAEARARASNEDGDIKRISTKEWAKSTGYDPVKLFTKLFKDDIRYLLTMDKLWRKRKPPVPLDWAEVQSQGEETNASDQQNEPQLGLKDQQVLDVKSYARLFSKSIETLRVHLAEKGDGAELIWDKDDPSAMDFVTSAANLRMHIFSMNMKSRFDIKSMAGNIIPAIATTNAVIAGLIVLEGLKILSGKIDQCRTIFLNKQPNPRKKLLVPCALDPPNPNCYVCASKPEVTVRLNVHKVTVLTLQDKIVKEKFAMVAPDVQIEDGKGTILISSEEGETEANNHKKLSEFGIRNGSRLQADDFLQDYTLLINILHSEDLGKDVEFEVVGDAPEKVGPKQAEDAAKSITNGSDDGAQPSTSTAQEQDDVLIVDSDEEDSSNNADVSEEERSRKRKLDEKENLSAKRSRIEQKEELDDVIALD
# SUMO-activating enzyme [6] = molecular target: T2, SUMO-activating enzyme; assay: inhibitors of in vitro SUMOylation cascade, primary screen, biochemical, HTRF, uHTS (AID 2006); assay type: protein-complex assay
# Hexokinase HKDC1 = molecular target: T3, Hexokinase HKDC1 (Homo sapiens, UniProt Q2TB90); assay: HKDC1 hexokinase inhibitors, dose response, biochemical, W721R variant (AID 504729); assay type: functional
# T3 sequence (Q2TB90 whole entry): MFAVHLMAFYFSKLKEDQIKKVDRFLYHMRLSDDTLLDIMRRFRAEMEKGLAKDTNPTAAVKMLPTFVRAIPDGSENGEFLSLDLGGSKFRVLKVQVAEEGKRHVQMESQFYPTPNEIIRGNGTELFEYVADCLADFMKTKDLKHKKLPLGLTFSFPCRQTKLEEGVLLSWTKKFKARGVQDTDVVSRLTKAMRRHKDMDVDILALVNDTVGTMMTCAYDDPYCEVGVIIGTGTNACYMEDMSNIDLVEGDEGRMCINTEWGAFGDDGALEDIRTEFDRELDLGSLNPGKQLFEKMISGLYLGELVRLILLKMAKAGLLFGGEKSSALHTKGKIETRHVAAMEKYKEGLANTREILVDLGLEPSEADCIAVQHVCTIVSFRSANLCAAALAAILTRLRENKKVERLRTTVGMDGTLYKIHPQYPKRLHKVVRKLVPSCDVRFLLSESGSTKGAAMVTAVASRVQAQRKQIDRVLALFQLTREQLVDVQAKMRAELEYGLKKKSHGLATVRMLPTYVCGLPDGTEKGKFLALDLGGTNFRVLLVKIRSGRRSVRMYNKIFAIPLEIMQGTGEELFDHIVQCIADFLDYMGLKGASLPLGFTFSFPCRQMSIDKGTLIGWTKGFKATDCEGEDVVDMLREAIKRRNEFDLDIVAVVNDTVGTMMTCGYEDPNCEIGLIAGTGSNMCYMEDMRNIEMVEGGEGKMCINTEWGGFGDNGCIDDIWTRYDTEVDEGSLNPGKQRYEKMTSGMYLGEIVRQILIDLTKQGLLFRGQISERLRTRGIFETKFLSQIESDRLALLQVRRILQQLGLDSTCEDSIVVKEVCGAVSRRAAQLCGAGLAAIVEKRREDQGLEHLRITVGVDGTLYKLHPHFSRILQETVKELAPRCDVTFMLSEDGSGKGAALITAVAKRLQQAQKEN
# Protein RecA = molecular target: T4, Protein RecA (Mycobacterium tuberculosis, UniProt P9WHJ3); assay: Fluorescence Cell-Free Homogeneous Dose Retest to Identify Inhibitors of RecA-Intein Splicing Activity. [Related pubchem assays (depositor defined):AID2097, AID2223, AID489010, AID492950]; assay type: functional
# T4 sequence (P9WHJ3 whole entry): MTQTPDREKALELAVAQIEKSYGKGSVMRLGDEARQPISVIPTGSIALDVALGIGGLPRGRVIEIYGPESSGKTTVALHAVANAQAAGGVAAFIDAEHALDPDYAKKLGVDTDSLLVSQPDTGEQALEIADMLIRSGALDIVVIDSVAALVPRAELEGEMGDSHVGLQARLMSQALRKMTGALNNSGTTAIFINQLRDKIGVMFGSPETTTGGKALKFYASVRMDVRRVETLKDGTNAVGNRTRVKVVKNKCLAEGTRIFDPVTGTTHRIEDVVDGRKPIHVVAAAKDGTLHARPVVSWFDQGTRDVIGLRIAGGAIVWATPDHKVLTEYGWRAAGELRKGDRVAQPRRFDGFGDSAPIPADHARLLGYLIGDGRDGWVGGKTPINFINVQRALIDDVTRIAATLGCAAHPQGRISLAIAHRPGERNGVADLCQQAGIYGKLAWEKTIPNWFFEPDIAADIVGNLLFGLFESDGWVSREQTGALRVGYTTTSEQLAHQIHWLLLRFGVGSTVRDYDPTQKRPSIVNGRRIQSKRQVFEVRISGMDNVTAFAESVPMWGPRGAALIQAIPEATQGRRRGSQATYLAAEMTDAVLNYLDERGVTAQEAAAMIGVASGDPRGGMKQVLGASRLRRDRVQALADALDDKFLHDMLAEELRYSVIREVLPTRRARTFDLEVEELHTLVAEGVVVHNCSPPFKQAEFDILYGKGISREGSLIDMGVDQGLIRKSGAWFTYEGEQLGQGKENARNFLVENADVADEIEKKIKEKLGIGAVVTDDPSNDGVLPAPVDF
# [7] = molecular target: Eukaryotic translation initiation factor 4E (Mus musculus, UniProt P63073); assay: eIF4E–eIF4G protein interaction inhibitors, dose response, biochemical, TR-FRET (AID 855); assay type: functional;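 note: potency for disrupting eIF4E binding to eIF4GI seen as loss of FRET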
# Chain of Eukaryotic translation initiation factor 4E (P63073 whole entry): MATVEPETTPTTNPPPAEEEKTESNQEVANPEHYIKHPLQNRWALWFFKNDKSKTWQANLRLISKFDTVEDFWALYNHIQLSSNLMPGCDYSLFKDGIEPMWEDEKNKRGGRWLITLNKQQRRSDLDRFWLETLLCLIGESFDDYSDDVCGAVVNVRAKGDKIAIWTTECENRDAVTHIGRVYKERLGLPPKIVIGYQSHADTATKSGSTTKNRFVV
# Exodeoxyribonuclease V = Exodeoxyribonuclease V (Escherichia coli (strain K12), UniProt P04993+P07648+P08394); assay: E. coli RecBCD inhibitors, dose response, counter-screen for AddAB inhibitor project, absorbance, V66 E. coli, mutant T4 phage (AID 492957); assay type: functional, cell-based, Escherichia coli str. K-12 substr. MG1655
# Chain of Exodeoxyribonuclease V (P04993 whole entry): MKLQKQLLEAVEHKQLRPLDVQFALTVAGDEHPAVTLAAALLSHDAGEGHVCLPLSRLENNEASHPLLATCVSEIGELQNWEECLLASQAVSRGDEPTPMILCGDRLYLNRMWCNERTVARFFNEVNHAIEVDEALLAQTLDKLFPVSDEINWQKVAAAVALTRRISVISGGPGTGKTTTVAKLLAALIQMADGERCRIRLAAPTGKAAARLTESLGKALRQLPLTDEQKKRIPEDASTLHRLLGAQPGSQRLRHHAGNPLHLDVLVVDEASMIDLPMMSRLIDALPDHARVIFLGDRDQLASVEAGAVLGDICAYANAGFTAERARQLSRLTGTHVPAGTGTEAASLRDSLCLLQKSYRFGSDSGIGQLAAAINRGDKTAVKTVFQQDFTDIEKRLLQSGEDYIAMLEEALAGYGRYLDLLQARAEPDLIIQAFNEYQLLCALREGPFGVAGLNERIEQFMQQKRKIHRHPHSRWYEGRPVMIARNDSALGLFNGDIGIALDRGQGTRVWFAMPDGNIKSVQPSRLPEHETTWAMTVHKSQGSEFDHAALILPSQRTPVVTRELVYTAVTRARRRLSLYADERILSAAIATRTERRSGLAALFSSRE
# Chain of Exodeoxyribonuclease V (P07648 whole entry): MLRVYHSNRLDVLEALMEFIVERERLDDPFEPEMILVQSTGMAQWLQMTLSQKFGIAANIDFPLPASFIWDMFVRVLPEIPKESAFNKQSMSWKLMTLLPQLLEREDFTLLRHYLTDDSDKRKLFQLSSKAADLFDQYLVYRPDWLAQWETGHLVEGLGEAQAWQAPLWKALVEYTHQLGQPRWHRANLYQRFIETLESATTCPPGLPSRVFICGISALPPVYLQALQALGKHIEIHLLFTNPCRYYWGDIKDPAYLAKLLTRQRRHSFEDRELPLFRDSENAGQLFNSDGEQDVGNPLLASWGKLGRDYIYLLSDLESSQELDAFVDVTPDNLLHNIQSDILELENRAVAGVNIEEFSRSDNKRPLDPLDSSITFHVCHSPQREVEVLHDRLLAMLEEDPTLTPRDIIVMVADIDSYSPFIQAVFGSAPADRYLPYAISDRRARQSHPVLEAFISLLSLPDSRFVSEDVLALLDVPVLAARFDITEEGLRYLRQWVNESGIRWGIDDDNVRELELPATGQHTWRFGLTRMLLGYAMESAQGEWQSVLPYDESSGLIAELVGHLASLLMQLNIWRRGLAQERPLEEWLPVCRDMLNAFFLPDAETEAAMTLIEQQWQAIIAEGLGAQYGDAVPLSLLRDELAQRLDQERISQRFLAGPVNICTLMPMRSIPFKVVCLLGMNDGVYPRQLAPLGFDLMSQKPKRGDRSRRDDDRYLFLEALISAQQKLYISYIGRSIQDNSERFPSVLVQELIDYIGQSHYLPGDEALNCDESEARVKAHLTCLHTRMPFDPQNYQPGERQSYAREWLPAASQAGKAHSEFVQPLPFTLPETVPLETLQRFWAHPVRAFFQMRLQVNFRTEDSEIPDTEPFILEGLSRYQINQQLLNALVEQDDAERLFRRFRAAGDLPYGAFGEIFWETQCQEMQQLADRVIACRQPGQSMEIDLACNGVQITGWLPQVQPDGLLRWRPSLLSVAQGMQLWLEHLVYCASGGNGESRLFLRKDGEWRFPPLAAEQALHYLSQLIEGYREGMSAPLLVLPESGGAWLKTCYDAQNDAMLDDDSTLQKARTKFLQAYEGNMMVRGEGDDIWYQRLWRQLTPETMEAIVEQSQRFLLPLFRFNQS
# Chain of Exodeoxyribonuclease V (P08394 whole entry): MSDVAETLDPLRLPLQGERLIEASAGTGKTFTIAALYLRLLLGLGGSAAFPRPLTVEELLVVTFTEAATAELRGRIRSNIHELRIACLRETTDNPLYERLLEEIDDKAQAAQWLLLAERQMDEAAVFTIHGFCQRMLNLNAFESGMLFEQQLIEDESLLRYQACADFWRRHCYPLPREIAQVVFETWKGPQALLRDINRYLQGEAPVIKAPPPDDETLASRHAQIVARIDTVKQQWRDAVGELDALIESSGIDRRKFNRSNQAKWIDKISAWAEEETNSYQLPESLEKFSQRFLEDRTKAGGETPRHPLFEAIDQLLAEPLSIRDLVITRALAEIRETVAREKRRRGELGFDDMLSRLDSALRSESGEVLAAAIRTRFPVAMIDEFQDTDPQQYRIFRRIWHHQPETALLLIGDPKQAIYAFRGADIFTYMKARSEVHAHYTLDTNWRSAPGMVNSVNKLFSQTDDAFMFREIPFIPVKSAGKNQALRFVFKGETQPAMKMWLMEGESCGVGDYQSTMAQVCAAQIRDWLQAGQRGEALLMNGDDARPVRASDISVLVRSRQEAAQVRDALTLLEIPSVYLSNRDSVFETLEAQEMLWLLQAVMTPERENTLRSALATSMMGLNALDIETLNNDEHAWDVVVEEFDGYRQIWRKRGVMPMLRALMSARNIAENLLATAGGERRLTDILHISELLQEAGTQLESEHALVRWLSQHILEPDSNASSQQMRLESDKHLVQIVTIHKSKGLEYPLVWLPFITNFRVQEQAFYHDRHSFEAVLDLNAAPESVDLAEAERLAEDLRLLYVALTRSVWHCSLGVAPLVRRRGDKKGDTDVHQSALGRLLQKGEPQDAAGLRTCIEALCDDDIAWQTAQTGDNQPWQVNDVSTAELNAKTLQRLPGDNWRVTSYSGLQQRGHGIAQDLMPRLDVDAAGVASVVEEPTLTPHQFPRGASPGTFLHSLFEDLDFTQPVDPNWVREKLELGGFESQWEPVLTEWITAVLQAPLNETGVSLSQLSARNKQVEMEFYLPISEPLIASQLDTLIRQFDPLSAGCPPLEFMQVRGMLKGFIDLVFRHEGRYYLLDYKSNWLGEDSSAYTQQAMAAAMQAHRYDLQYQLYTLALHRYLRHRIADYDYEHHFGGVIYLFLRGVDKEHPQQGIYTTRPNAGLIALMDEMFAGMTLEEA
# [8] = molecular target: T5, Sentrin-specific protease 8 (Homo sapiens, UniProt Q96LD8); assay type: functional
# T5 sequence (Q96LD8 whole entry): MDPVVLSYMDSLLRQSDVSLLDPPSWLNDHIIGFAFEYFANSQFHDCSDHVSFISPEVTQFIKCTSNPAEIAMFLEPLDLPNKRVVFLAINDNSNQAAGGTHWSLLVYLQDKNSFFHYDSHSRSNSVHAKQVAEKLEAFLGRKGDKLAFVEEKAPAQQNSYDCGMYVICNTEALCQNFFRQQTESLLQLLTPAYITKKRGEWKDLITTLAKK
# [9] = Counterscreen for AddAB inhibitors: absorbance-based bacterial cell-based high throughput dose response assay for inhibitors of bacterial viability. [Related pubchem assays (depositor defined):AID435030, AID449728, AID449731, AID488942, AID488955, AID488956]; assay type: functional
# [10] = cytotoxicity toward NIH3T3 fibroblasts, dose response, counter-screen, cell-based, ATP luminescence, mouse fibroblasts (AID 2010); assay type: functional;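 note: cells exposed to compound for about 90 hours before reading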
# [11] = molecular target: T5, Sentrin-specific protease 8; assay type: functional; remark: listed apart in the source
# [12] = inhibitors of intracellular T. cruzi replication, confirmation, NIH3T3 host cells, beta-gal luminescence (AID 2044); assay type: functional, cell-based;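 note: intracellular parasites grown in NIH/3T3 mouse fibroblasts as host cells; luminescent beta-galactosidase reporter signal from transgenic T. cruzi replicating inside host cells; inhibitors lower the luminescence signal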
# [13] = inhibitors of Trypanosoma cruzi host-cell infection, confirmation, beta-gal luminescence, NIH3T3 host cells (AID 2630); assay type: functional, cell-based; settings: Mus musculus
# [14] = Luminescence Cell-Based/Microorganism Confirmation at Dose of Inhibitors of Trypanosoma cruzi Infection. [Related pubchem assays: 1885, 1968 ]; assay type: functional
# [15] = Luminescence Cell-Based Secondary HTS screen to identify cytotoxic compounds of NIH3T3 cells. [Related pubchem assays: 1885, 1968 ]; assay type: functional
# [16] = molecular target: T6, Rac GTPase-activating protein 1 (Homo sapiens, UniProt Q9H0H5); assay: MgcRacGAP GTPase-activating activity inhibitors, confirmation, biochemical, ADP Hunter fluorescence, primary and confirmatory (AID 624330); assay type: functional
# T6 sequence (Q9H0H5 whole entry): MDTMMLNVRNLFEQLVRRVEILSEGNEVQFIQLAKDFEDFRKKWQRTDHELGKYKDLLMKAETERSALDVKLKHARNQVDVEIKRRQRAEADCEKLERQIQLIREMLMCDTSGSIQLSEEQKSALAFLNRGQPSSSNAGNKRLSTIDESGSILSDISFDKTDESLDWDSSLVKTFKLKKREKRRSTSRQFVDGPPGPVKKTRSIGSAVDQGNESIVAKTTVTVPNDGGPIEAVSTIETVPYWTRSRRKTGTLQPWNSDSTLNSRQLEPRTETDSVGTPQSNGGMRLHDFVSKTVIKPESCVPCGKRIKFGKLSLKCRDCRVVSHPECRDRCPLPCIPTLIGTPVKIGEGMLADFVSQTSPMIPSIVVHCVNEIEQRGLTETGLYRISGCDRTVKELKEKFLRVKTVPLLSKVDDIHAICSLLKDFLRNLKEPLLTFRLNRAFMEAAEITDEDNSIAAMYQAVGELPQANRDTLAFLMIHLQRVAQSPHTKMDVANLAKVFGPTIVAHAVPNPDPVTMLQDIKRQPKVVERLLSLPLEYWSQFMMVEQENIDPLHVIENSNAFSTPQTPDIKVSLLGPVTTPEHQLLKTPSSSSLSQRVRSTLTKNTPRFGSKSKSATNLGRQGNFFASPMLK
# [17] = molecular target: G-protein coupled receptor 55 (Homo sapiens, UniProt Q9Y2T6); assay: GPR55 antagonists blocking LPI-driven arrestin recruitment, primary screen, imaging, U2OS, beta-arrestin-GFP, LPI agonist (AID 2013); assay type: functional;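 note: antagonist potency measured as reduced agonist-driven arrestin aggregation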
# Chain of G-protein coupled receptor 55 (Q9Y2T6 whole entry): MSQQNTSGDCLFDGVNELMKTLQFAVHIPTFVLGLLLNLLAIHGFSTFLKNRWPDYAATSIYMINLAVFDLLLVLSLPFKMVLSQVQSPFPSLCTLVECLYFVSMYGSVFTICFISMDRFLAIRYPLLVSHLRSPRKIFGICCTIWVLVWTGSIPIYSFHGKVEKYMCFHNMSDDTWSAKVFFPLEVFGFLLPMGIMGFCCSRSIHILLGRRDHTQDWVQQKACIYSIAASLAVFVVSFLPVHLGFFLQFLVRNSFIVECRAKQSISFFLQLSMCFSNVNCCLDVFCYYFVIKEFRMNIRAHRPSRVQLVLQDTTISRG
# INS1 [18] = assay: beta cell apoptosis inhibitors, cytokine rescue, dose response, luminescence, retest (AID 449756); assay type: functional, cell-based; settings: Rattus norvegicus;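 note: cell death triggered by IL-1 beta plus TNF-alpha plus IFN-gamma mixture; protective hits raise ATP signal compared with cytokine alone wells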
# HEK293 = assay: inhibitors of LMP1-driven NF-kB reporter, dose response, cell-based, HEK293, luciferase, cherry-pick (AID 588343); assay type: functional; settings: Homo sapiens
# INS1 [19] = assay: protection of INS-1E cells from cytokine death, dose response, ATP luminescence, dry powder (AID 488844); assay type: functional, cell-based; settings: Rattus norvegicus
structure (smiles),measurement,setting,value
CCCCC[C@H](O)/C=C/[C@@H]1[C@@H](C/C=C\CCCC(=O)OC)[C@@H](O)C[C@H]1O,AC50,[1],16.1 µM (active)
same,EC50,[2],> 120 µM (not active)
same,EC50,[3],> 120 µM (not active)
same,EC50,[4],> 120 µM (not active)
same,IC50,SUMO-activating enzyme [5],10.5 µM (active)
same,IC50,SUMO-activating enzyme [6],18.4 µM (active)
same,IC50,Hexokinase HKDC1,9.12 µM (active)
same,EC50,Protein RecA,12.2 µM (active)
same,IC50,[7],8.7 µM (active)
O=C(CCN1CCN(c2ccccc2)CC1)N/N=C/c1ccc([N+](=O)[O-])o1,IC50,Exodeoxyribonuclease V,> 119 µM (inactive)
same,EC50,cells,0.037 µM (active)
same,IC50,[8],40 µM (active)
same,IC50,[9],> 39.5 µM (inactive)
same,EC50,[10],> 60 µM (not active)
same,IC50,[11],96.9 µM (inactive)
same,EC50,[12],< 0.1 µM (active)
CSc1ccc(CN2CCCC(CNC(=O)c3ccc(F)cc3)C2)cc1 (configuration not stated),EC50,[13],7.17 µM (active)
same,EC50,[14],7.17 µM (active)
same,EC50,cells,0.12 µM (active)
same,EC50,[10],> 30 µM (not active)
same,EC50,[15],> 195 µM (not active)
same,EC50,[12],< 0.1 µM (active)
O=C(O)c1cccc(N2C(=O)/C(=C/c3ccc(SCc4ccc(Cl)cc4)o3)SC2=S)c1,IC50,[16],132 µM (active)
same,IC50,SUMO-activating enzyme [5],1.39 µM (active)
same,IC50,SUMO-activating enzyme [6],14.6 µM (active)
same,IC50,[17],4.43 µM (active)
same,IC50,[7],29.9 µM (active)
CCC(=O)NC(c1ccc(C)cc1)c1cc(Cl)c2cccnc2c1O (configuration not stated),IC50,Exodeoxyribonuclease V,> 119 µM (inactive)
same,AC50,INS1 [18],1.65 µM (active)
same,AC50,HEK293,12.9 µM (active)
same,IC50,[9],> 119 µM (inactive)
O=C(Cc1cn(Cc2cccc(Cl)c2)c2ccccc12)N1CCCCCC1,EC50,[13],3.09 µM (active)
same,EC50,[14],3.09 µM (active)
same,EC50,[10],> 60 µM (not active)
same,EC50,[15],> 195 µM (not active)
same,EC50,[12],1.75 µM (active)
C[C@@H]1CN([C@@H](C)CO)C(=O)c2cccc(NC(=O)Nc3ccccc3)c2O[C@H]1CN(C)S(=O)(=O)c1ccc(Cl)cc1,AC50,INS1 [19],116 µM (active)
